Laboratory results as given in patent publication US20100152129A1 (priority 2008, published 2010).
Read-outs that look alike come from different tables or passages of the source.

Legend:
Panc-1 cells [1] = experiment: CCK-8 based cytotoxicity assay; format: cell-based; details: Gem 10 nM
From the text: CCK-8 based cytotoxicity assay is a sensitive nonradioactive colorimetric assay for determining the number of viable cells in cell proliferation and cytotoxicity assays. WST-8 (2-(2-methoxy-4-nitrophenyl)-3-(4-nitrophenyl)-5-(2,4-disulfophenyl)-2H tetrazolium, monosodium salt) is bioreduced by cellular dehydrogenases to an orange formazan product that is soluble in tissue culture medium. The amount of formazan produced is directly proportional to the number of living cells.
Test System: The Panc-1 cell line was procured from ATCC (American Tissue type Culture Collection USA, catalog number: CRL-1469) and the frozen vial was stored in liquid nitrogen container.
Panc-1 cells were seeded at a density of 3000 cells/well in a 96 well plate and allowed to recover for 24 hrs in a CO2 incubator at 37° C. […] The final DMSO concentration was 0.5% in wells. Plates were incubated for 24, 48, and 72 hrs. At the end of incubation CCK-8 was added and kept at 37° C. for 3 hrs following which absorbance was measured at 450 nm.

Panc1 cells = details: human
Panc-1 cells [2] = experiment: Cell cycle analysis by DNA content (propidium iodide, flow cytometry); format: cell-based; details: control 5.5%
Protocol: Understanding the status of cells cycles G1, S, G2 and M is indicative of the cytotoxic effect including apoptosis and DNA damage of anticancer drugs. In the current study FACS was used to measure the cell cycle stages in Panc 1 cells after exposure to anticancer drugs including drug combination. The synergistic effect of Gemcitabine with […]-00 on Panc-1 cancer cells was analyzed using propidium iodide based cell cycle analysis where total population of cells was sorted as sub G0, G1, S and G2/M populations according to total fluorescent intensity. […]-00 at a final concentration of 60 nM, 240 nM and 480 nM and Gemcitabine at a final concentration of 1 nM, 3 nM and 10 nM were analyzed in single dose and in all possible combinations of the dose range for the Gemcitabine and […]-00. Panc-1 cells were treated with Gemcitabine for 0 to 24 hrs. After 24 hrs the cells were washed twice with plain MEM. Fresh MEM with 10% serum (2 mL/well) was added to the wells, followed by treatment with […]-00 for 24 hrs to 96 hrs. After 96 hrs the treated cells were harvested, fixed, stained with propidium iodide and analyzed for specific cell arrest using DNA content analysis by flow cytometry. Adherent cells were trypsinized and washed with PBS or HBSS without Ca++ and Mg++ containing EDTA pH 8.0 and BSA. They were further isolated, centrifuged and total number of cells were counted and recorded. […]

Row | Compound | % Cytotoxicity (Panc-1 cells [1]; 24 hrs) | % Cytotoxicity (Panc-1 cells [1]; 48 hrs) | % Cytotoxicity (Panc-1 cells [1]; 72 hrs) | % Cytotoxicity (Panc-1 cells [1]; 72 hrs, listed as Gem) | % Cytotoxicity in Panc1 cells (Panc1 cells; 6 h) | % Cytotoxicity in Panc1 cells (Panc1 cells; 16 h) | % Cytotoxicity in Panc1 cells (Panc1 cells; 36 h) | population of cells in sub G0 (apoptotic cells) (Panc-1 cells [2]; 1 nM alone) | population of cells in sub G0 (apoptotic cells) (Panc-1 cells [2]; 60 nM alone)
1 | Nc1ccn([C@@H]2O[C@H](CO)[C@@H](O)C2(F)F)c(=O)n1 [Gemcitabine, 2′, 2′-difluorodeoxycytidine] | 21.997% | 27.571% | 31.47% | 31.471% | 2.31% | 6.54% | 7.23% | 16.85% | –
2 | CN1CC[C@@H](c2c(O)cc(O)c3c(=O)cc(-c4ccccc4Cl)oc23)[C@@H]1CO.Cl (relative stereo) [P276-00, (+)-trans-2-(2-Chloro-phenyl)-5,7-dihydroxy-8-(2-hydroxy-methyl-1-methyl-pyrrolidin-3-y1)-chromen-4-one hydrochloride] | – | – | – | – | – | – | – | – | 17.6%
